Assay results: ChEMBL document CHEMBL1909046, “DrugMatrix in vitro pharmacology data”

Legend:
[1] = target: Aldo-keto reductase family 1 member B1 (Rattus norvegicus, UniProt P07943); test: biochemical; assay type: tissue-based, Lens of camera-type eye;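 also: inhibition of aldose reductase enzyme activity, measured with DL-glyceraldehyde as the substrate; in other assays of this panel Not Active means under 50% inhibition at 10 µM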
[2] = DRUGMATRIX: Serotonin (5-Hydroxytryptamine) 5-HT3 radioligand binding (ligand: [3H] GR-65630); assay type: cell membranes, Membrane; conditions: hek293; Not Active = under 50% inhibition at 10 µM
Caspase-1 = target: T1, Caspase-1 (Homo sapiens, UniProt P29466); design: species or system Escherichia coli;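 also: Caspase-1 enzyme inhibition assay with a peptide substrate; in other assays of this panel Not Active means under 50% inhibition at 10 µM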
T1 sequence (P29466 whole entry): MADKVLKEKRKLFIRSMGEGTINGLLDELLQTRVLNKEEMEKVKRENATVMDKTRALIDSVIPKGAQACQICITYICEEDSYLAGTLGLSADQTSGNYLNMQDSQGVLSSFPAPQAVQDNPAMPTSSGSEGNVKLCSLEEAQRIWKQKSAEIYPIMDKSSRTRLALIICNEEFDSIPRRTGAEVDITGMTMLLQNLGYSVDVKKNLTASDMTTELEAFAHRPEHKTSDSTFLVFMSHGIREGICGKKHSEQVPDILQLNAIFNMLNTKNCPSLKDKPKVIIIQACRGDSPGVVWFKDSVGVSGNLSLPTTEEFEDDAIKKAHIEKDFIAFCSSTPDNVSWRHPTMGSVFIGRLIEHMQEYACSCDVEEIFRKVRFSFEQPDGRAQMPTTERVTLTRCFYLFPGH

[3] = target: 5-hydroxytryptamine receptor 2B (Homo sapiens, UniProt P41595); assay type: cell membranes, CHO-K1, Membrane; conditions: for Ki: read-out: Ki; as to all read-outs here: in other assays of this panel Not Active means under 50% inhibition at 10 µM
Chain of 5-hydroxytryptamine receptor 2B (P41595 whole entry): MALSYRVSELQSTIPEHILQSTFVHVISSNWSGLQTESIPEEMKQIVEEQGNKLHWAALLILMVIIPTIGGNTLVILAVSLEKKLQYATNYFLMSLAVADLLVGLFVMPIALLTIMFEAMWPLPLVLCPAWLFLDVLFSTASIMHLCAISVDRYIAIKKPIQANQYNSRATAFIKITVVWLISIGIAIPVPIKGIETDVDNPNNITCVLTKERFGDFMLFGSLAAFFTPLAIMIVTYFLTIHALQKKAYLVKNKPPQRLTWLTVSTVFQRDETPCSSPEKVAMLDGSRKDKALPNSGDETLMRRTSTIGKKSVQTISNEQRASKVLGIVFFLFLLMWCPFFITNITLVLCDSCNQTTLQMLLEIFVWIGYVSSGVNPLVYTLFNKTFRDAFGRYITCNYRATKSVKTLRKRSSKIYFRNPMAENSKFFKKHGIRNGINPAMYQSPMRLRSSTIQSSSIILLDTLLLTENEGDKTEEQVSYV

[4] = target: T2, Muscarinic acetylcholine receptor M5 (Homo sapiens, UniProt P08912); assay type: cell membranes, CHO-K1, Membrane; conditions: cho-k1; also: in other assays of this panel Not Active means under 50% inhibition at 10 µM
T2 sequence (P08912 whole entry): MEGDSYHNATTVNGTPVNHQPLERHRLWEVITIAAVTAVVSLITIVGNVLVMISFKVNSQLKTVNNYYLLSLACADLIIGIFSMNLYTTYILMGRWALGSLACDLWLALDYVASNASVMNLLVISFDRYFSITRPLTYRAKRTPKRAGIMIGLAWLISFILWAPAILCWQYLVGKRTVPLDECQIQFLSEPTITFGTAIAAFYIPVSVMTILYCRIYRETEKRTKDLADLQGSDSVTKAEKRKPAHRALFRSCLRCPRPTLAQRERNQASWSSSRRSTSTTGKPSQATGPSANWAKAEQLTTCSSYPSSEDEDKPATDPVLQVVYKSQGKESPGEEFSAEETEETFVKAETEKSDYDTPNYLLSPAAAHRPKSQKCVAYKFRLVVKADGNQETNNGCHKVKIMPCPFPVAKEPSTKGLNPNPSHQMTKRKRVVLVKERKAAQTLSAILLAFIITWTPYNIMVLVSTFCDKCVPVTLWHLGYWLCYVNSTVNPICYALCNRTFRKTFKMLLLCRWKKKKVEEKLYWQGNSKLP

Progesterone receptor = target: T3, Progesterone receptor (Bos taurus, UniProt Q690N0); test: DRUGMATRIX: Progesterone radioligand binding (ligand: [3H] R-5020); assay type: tissue-based, Uterus; conditions: Not Active = under 50% inhibition at 10 µM
T3 sequence (Q690N0 whole entry): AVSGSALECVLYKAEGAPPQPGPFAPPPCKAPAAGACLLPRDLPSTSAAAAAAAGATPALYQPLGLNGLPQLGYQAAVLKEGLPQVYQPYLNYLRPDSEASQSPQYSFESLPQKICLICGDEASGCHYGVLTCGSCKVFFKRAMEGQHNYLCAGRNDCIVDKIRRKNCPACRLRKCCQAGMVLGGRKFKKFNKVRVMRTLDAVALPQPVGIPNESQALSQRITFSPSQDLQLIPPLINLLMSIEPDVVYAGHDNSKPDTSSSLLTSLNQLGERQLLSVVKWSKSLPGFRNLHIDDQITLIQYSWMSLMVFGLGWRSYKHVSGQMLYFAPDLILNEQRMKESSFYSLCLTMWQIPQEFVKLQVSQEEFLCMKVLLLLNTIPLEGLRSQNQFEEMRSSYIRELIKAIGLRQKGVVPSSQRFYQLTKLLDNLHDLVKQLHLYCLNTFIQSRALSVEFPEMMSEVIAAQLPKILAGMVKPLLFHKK

SMILES	IC50 [1]	IC50 [2]	Ki [2]	IC50 (Caspase-1)	IC50 ([3]; cho-k1)	IC50 [4]	IC50 (Progesterone receptor)	IC50 ([3]; read-out: IC50)	Ki [3]	IC50 ([1]; read-out: IC50)
N[C@@H]1[C@H]2CN(c3nc4c(cc3F)c(=O)c(C(=O)O)cn4-c3ccc(F)cc3F)C[C@@H]12 [TROVAFLOXACIN]	Not Active	Not Active	Not Active	Not Active	Not Active	Not Active	Not Active			
Cc1cccc(N(C)C(=S)Oc2ccc3ccccc3c2)c1 [TOLNAFTATE]	Not Active	Not Active	Not Active	Not Active		Not Active	Not Active	2010 nM	1280 nM	
Cc1oncc1C(=O)Nc1ccc(C(F)(F)F)cc1 [LEFLUNOMIDE]	Not Active	Not Active	Not Active	Not Active	Not Active	Not Active	Not Active			
Nc1nc2ccc(OC(F)(F)F)cc2s1 [RILUZOLE]	Not Active	Not Active	Not Active	Not Active	Not Active	Not Active	Not Active			
Cc1c(C)c2c(c(C)c1O)CCC(C)(COc1ccc(CC3SC(=O)NC3=O)cc1)O2 (configuration not stated) [TROGLITAZONE]		Not Active	Not Active	Not Active		Not Active	Not Active	1310 nM	835 nM	2040 nM
CCCOc1ccccc1-c1nc2nn[nH]c2c(=O)[nH]1 [ZAPRINAST]	Not Active	Not Active	Not Active	Not Active	Not Active	Not Active	Not Active			
CC[C@]1(O)C[C@H]2CN(CCc3c([nH]c4ccccc34)[C@@](C(=O)OC)(c3cc4c(cc3OC)N(C=O)[C@H]3[C@@](O)(C(=O)OC)[C@H](OC(C)=O)[C@]5(CC)C=CCN6CC[C@]43[C@@H]65)C2)C1 [VINCRISTINE]	Not Active	Not Active	Not Active	Not Active	Not Active	Not Active	Not Active			
COc1c(C)c2c(c(O)c1C/C=C(\C)CCC(=O)O)C(=O)OC2 [MYCOPHENOLIC ACID]	Not Active	Not Active	Not Active	Not Active	Not Active	Not Active	Not Active			
CSc1ccc(/C=C2/C(C)=C(CC(=O)O)c3cc(F)ccc32)cc1 [SULINDAC SULFIDE]		Not Active	Not Active	Not Active	Not Active	Not Active	Not Active			84 nM
O=NN(CCCl)C(=O)NC1CCCCC1 [LOMUSTINE]	Not Active	Not Active	Not Active	Not Active	Not Active	Not Active	Not Active			
